In brackets after ≈: the same amount, converted by molar mass. Read-outs that look alike come from different tables or passages of the source.
Key:
Format in all cases: cell-based
[1] = system: M. kansasii 6509/96 (clinically isolated strain); assay: Antimycobacterial MIC micromethod; settings: Mycobacterium kansasii, read-out: MIC M. kansasii 6509/96
[2] = system: Gram-positive cocci including MRSA; assay: Antibacterial microdilution, summary for Gram-positive cocci; settings: Staphylococcus aureus, read-out: MICs against Gram-positive cocci
Experimental: The in vitro antibacterial activity was assayed against eight Gram-positive and Gram-negative strains: Staphylococcus aureus CCM 4516/08, methicillin-resistant Staphylococcus aureus H 5996/08 (MRSA), Staphylococcus epidermidis H 6966/08, Enterococcus sp. J 14365/08; Escherichia coli CCM 4517, Klebsiella pneumoniae D 11750/08, ESBL-positive Klebsiella pneumoniae J 14368/08, and Pseudomonas aeruginosa CCM 1961.
The microdilution broth method modified according to standard M07-A07 in Mueller-Hinton broth (HiMedia Laboratories, Mumbai, India) adjusted to pH 7.4 (±0.2) was used. The tested compounds were dissolved in DMSO to the final concentrations ranging from […]. Benzylpenicillin (penicillin G) was used as a comparative drug. Bacterial inoculum in sterile water was prepared to match 0.5 McFarland scale ([…]). The minimum inhibitory concentrations were assayed as 90% (IC90) or higher reduction of growth when compared to the control. The determination of results was performed visually and spectrophotometrically (at 540 nm). The values of MICs were determined after 24 and 48 h of incubation in the darkness at 35 °C (±0.1) in a humid atmosphere.

[3] = system: Mycobacterium kansasii 235/80; assay: Antimycobacterial MIC micromethod; settings: read-out: MIC M. kansasii 235/80
Mtb. Praha 1 = assay: microbe, parasite or virus in culture; settings: Mycobacterium tuberculosis, read-out: MIC Mtb. Praha 1
Mtb. Praha 131 (XDR-TB) = assay: microbe, parasite or virus in culture; settings: Mycobacterium tuberculosis, read-out: MIC Mtb. Praha 131 (XDR-TB)
Mtb. 7357/1988 = assay: microbe, parasite or virus in culture; settings: Mycobacterium tuberculosis, read-out: MIC Mtb. 7357/1988
Mtb. 234/2005 = assay: microbe, parasite or virus in culture; settings: Mycobacterium tuberculosis, read-out: MIC Mtb. 234/2005
[4] = system: Mycobacterium avium 330/88; assay: Antimycobacterial MIC micromethod
[5] = system: Mycobacterium tuberculosis 331/88 (H37Rv); assay: Antimycobacterial MIC micromethod, Šula's medium
[6] = system: Mycobacterium tuberculosis, M. avium and M. kansasii; assay: Antimycobacterial MIC, summary over all mycobacterial strains; settings: range over all strains and times; read-out: MICs against all mycobacterial strains
[7] = 336 h, 14 d, read-out: MIC Mtb. 331/88
[8] = 504 h, 21 d, read-out: MIC Mtb. 331/88
[9] = time not stated, read-out: MIC against M. tuberculosis

Row | SMILES | MIC ([1]; 168 h, 7 d) | MIC ([1]; 336 h, 14 d) | MIC ([1]; 504 h, 21 d) | MIC [2] | MIC ([3]; 235/80, 168 h, 7 d) | MIC ([3]; 235/80, 336 h, 14 d) | MIC ([3]; 235/80, 504 h, 21 d) | MIC (Mtb. Praha 1; 336 h) | MIC (Mtb. Praha 1; 504 h) | MIC (Mtb. Praha 131 (XDR-TB); 336 h) | MIC (Mtb. Praha 131 (XDR-TB); 504 h) | MIC (Mtb. 7357/1988; 336 h) | MIC (Mtb. 7357/1988; 504 h) | MIC (Mtb. 234/2005; 336 h) | MIC (Mtb. 234/2005; 504 h) | MIC ([4]; 330/88, 336 h, 14 d) | MIC ([4]; 330/88, 504 h, 21 d) | MIC [5, 7] | MIC [5, 8] | MIC [5, 9] | further results
1 | O=C(Oc1ccc(Cl)cc1C(=O)Nc1ccc(Cl)c(Cl)c1)c1ccc(C(F)(F)F)cc1 [1e] | 1 µM (≈ 0.489 µg/mL) | 2 µM (≈ 0.977 µg/mL) | 4 µM (≈ 1.95 µg/mL) | < 1 µM | 1 µM (≈ 0.489 µg/mL) | 2 µM (≈ 0.977 µg/mL) | 4 µM (≈ 1.95 µg/mL) | 1 µM (≈ 0.489 µg/mL) | 2 µM (≈ 0.977 µg/mL) | 2 µM (≈ 0.977 µg/mL) | 2 µM (≈ 0.977 µg/mL) | 1 µM (≈ 0.489 µg/mL) | 2 µM (≈ 0.977 µg/mL) | 1 µM (≈ 0.489 µg/mL) | 2 µM (≈ 0.977 µg/mL) | 4 µM (≈ 1.95 µg/mL) | 4 µM (≈ 1.95 µg/mL) | 1 µM (≈ 0.489 µg/mL) | 1 µM (≈ 0.489 µg/mL) | 1 µM (≈ 0.489 µg/mL) | –
2 | O=C(Oc1cc(Cl)ccc1C(=O)Nc1ccc(Br)cc1)c1ccc(C(F)(F)F)cc1 [1j] | 2 µM (≈ 0.997 µg/mL) | 4 µM (≈ 1.99 µg/mL) | 4 µM (≈ 1.99 µg/mL) | < 1 µM | 1 µM (≈ 0.499 µg/mL) | 4 µM (≈ 1.99 µg/mL) | 4 µM (≈ 1.99 µg/mL) | 2 µM (≈ 0.997 µg/mL) | 2 µM (≈ 0.997 µg/mL) | 1 µM (≈ 0.499 µg/mL) | 2 µM (≈ 0.997 µg/mL) | 2 µM (≈ 0.997 µg/mL) | 2 µM (≈ 0.997 µg/mL) | 2 µM (≈ 0.997 µg/mL) | 2 µM (≈ 0.997 µg/mL) | 8 µM (≈ 3.99 µg/mL) | 8 µM (≈ 3.99 µg/mL) | 2 µM (≈ 0.997 µg/mL) | 4 µM (≈ 1.99 µg/mL) | – | –
3 | O=C(Oc1ccc(Cl)cc1C(=O)Nc1ccc(C(F)(F)F)cc1)c1ccc(C(F)(F)F)cc1 [1o, 4-chloro-2-[4-(trifluoromethyl)phenylcarbamoyl]phenyl 4-(trifluoromethyl)benzoate] | 1 µM (≈ 0.488 µg/mL) | 2 µM (≈ 0.976 µg/mL) | 2 µM (≈ 0.976 µg/mL) | – | 1 µM (≈ 0.488 µg/mL) | 2 µM (≈ 0.976 µg/mL) | 2 µM (≈ 0.976 µg/mL) | 0.5 µM (≈ 0.244 µg/mL) | 0.5 µM (≈ 0.244 µg/mL) | 0.5 µM (≈ 0.244 µg/mL) | 1 µM (≈ 0.488 µg/mL) | 0.5 µM (≈ 0.244 µg/mL) | 1 µM (≈ 0.488 µg/mL) | 0.5 µM (≈ 0.244 µg/mL) | 1 µM (≈ 0.488 µg/mL) | 1 µM (≈ 0.488 µg/mL) | 4 µM (≈ 1.95 µg/mL) | 1 µM (≈ 0.488 µg/mL) | 1 µM (≈ 0.488 µg/mL) | 1 µM (≈ 0.488 µg/mL) | MIC [6]: 1 to 4 µM (≈ 0.488 to 1.95 µg/mL)

From PMC6270420, “Antibacterial Activity of Salicylanilide 4-(Trifluoromethyl)benzoates” (Molecules, 2013)
